Assay [1] concerns the target T1, TDP-43 (Mus musculus, UniProt Q921F2). Briefly: LPS (5 mg/kg) plus sciatic nerve axotomy in mice: TDP-43 and phosphoTDP-43 aggregates. In kind it is in vivo. Also noted: from tissue; host or cells: ventral lumbosacral spinal cord of mice, axotomy side. The conditions noted are these: LPS 5 mg/kg i.p. plus axotomy, day 3 post-surgery, 10 and 20 mg/kg once daily i.p. The method, then:
FIG. 13: Example peptide D dose dependently reduces TDP-43 and phosphoTDP-43 aggregates in lumbar spinal cord of mice with LPS plus sciatic nerve axotomy. Western blot analysis of TDP-43 and phosphoTDP-43 expression in the soluble and insoluble fraction of ipsilateral lumbar spinal cord tissue that was collected in mice three days post LPS (5 mg/kg) plus sciatic nerve axotomy procedure. Group 1: Non-surgical mice. Group 2: Control mice with LPS plus sciatic nerve axotomy. Group 3: 10 mg/kg of peptide D treatment (once daily, i.p.) in mice with LPS treatment plus sciatic nerve axotomy. Group 4: 20 mg/kg of peptide D treatment (once daily, i.p.) in mice with LPS treatment plus sciatic nerve axotomy.
This mouse model was further optimized by adding one dose of lipopolysaccharide (LPS) injection (5 mg/kg, i.p.) when performing surgery. LPS injection aggravated the observed TDP-43 proteinopathy as assessed at day 3 post-surgery.

The test system of a further assay is SH-SY5Y cells. Briefly: Stress granule (TIA-1) numbers in SH-SY5Y cells with sodium arsenite. The format is cell-based, human. The conditions noted are these: 1 mM sodium arsenite 1 hour, TIA-1 staining, vs scramble.
The target in assay [2] is T1, TDP-43. Briefly: LPS (1 mg/kg daily, 7 days) plus sciatic nerve axotomy in mice: TDP-43 aggregation by western blotting. Also noted: from tissue; host or cells: ventral lumbosacral spinal cord of mice, axotomy side. In kind it is in vivo. The conditions noted are these: LPS 1 mg/kg daily i.p. for 7 days plus axotomy; 20 mg/kg i.p.; vs control mice. The method, then: FIG. 17: Example peptide D reduces TDP-43 aggregates in lumbar spinal cord of mice with sciatic nerve axotomy and 7 days of LPS administration. Mice underwent sciatic nerve axotomy (day 0) and LPS (1 mg/kg, daily, i.p.) administration for 7 days (days 0-7). TDP-43 aggregation in lumbar spinal cord was evaluated by western blotting.
Since LPS causes systematic inflammation, microglia activation in ventral horn of spinal cord was first detected by staining with an Iba-1 antibody. […] In this setting, motor neuron loss in the lower limb motoneuron group in L5/6 of spinal cord was observed, as confirmed by staining with ChAT and NeuN antibodies. […] TDP-43 and phosphoTDP-43 insolubility in lumbar spinal cord was also confirmed by western blotting.
In general terms: A western blot detects proteins with antibodies after separation by electrophoresis.

The test system of assay [3] is mice with LPS plus sciatic nerve axotomy. As to the kind of experiment: LPS (5 mg/kg) plus sciatic nerve axotomy in mice: Fluoro Jade C neurodegeneration staining. The conditions noted are these: 20 mg/kg daily i.p., day 7. In kind it is in vivo, mouse. The method, then: FIG. 14: Example peptide D prevents neurodegeneration in ventral horn of spinal cord of mice with LPS plus sciatic nerve axotomy. Mice underwent LPS administration (5 mg/kg, i.p.) plus sciatic nerve axotomy on day 0 and tissues were collected and fixed on day 7 after the surgical procedure. Fluoro Jade (neurodegeneration marker) staining of ventral horn of spinal cord of mice in each indicated treatment group (upper panel) and counterstained with DAPI (lower panel). 20 mg/kg of peptide D was injected daily through i.p. route.
Neurodegeneration in the lumbar spinal cord of mice 7 days after administration of LPS plus surgery was then evaluated using Fluoro Jade C staining. Animals were divided into two peptide D treatment groups. In one group, peptide D administration started on the day of surgery, and in the other group, peptide D treatment started at 3 days post-surgery when the TDP-43 proteinopathies were at their maximum.

Experimental findings from patent US20250073303A1, “TDP-43 Interference Peptides, Methods, and Uses Thereof” (The University of British Columbia, priority 2022, published 2025) are described below.

T1 sequence (Q921F2 whole entry): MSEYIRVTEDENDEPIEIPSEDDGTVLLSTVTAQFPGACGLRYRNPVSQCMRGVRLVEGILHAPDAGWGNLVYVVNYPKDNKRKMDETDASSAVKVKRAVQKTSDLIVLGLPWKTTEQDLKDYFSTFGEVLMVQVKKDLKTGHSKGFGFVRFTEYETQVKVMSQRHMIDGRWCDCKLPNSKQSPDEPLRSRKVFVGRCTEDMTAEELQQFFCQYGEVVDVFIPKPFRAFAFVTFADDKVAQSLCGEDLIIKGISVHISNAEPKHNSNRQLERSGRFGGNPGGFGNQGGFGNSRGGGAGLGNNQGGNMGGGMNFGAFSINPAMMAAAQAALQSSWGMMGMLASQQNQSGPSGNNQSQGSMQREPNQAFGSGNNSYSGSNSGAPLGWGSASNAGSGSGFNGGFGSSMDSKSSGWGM

Turning to “peptide D: candidate peptide from a CK-1δ binding region for TDP-43, truncated HIV-1 TAT domain added at the N-terminal (YGRKKRRQRRRGFSYDYVFDWNMLK)”, the “TDP-43 and phosphoTDP-43 aggregation” value with TDP-43 [1] was “reduced TDP-43 and phosphoTDP-43 aggregation in a dose dependent manner”. In the assay on SH-SY5Y cells, the “number of stress granules (SGs) induced by sodium arsenite” value was “reduced”. In addition, the “TDP-43 aggregation in lumbar spinal cord” value with TDP-43 [2] was “reduced”. The “neurodegeneration in the ventral horn of spinal cord (Fluoro Jade C)” value in assay [3] (administration started on the day of surgery) and in assay [3] (treatment started at 3 days post-surgery) was “less neurodegeneration” in each case.
